Among the data in patent US10894784B2, “Heteroarylbenzimidazole compounds” (BAYER PHARMA AKTIENGESELLSCHAFT, priority 2015, dated 2021) are IC50 values, retold here.

This experiment addresses TBK1 (Homo sapiens (Human), UniProt Q9UHD2). Nature of the experiment: TBK1 low ATP kinase assay (in vitro assay 1). It is filed as biochemical. As to conditions: in vitro assay 1, read-out: TBK1 low ATP kinase assay IC50.

SMILES strings stand for the structures.

TBK1, sequence (Q9UHD2 whole entry): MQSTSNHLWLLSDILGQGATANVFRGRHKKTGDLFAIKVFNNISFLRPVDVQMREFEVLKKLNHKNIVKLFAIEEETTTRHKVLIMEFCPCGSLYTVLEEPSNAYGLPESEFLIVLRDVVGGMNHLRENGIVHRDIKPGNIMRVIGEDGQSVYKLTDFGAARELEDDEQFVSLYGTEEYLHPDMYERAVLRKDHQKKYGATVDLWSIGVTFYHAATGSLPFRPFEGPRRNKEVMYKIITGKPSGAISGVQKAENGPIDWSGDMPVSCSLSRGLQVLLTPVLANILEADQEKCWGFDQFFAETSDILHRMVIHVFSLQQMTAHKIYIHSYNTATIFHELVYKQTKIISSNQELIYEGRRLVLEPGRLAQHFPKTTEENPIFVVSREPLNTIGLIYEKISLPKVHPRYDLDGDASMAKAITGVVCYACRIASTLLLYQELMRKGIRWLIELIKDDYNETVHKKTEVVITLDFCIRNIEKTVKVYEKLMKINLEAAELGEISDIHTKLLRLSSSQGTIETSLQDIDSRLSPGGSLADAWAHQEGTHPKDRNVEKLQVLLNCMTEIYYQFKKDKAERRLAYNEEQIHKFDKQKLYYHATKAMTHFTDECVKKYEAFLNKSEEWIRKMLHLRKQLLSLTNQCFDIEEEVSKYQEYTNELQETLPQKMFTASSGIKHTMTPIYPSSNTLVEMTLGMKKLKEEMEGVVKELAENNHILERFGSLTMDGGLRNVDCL

A word on the IC50: it is the concentration that inhibits the measured activity by half. `COc1c(-c2ccc3nc(Nc4cc(C(C)N5CCN(C(=O)C6(C(F)(F)F)CC6)CC5)ccn4)[nH]c3c2)ncnc1N(C)C` (single isomer, unassigned) [Example 107.02.04, (4-{(1R or 1S)-1-[2-({6-[6-(dimethylamino)-5-methoxypyrimidin-4-yl]-1H-benzimidazol-2-yl}amino)pyridin-4-yl]ethyl}piperazin-1-yl)[1-(trifluoromethyl)cyclopropyl]methanone]: the IC50 amounted to 5.2 nM.
Regarding `COc1c(C)ncnc1-c1ccc2nc(Nc3cc(CN4CCN(C(=O)C5CC5)CC4)ccn3)[nH]c2c1` [Example 61.01.02, cyclopropyl{4-[(2-{[6-(5-methoxy-6-methylpyrimidin-4-yl)-1H-benzimidazol-2-yl]amino}pyridin-4-yl)methyl]piperazin-1-yl}methanone], the IC50 stood at 23 nM.
The result for `Cc1noc(-c2ccc3nc(Nc4cc(CN5CCN(C(=O)CC6CC6)CC5)ccn4)[nH]c3c2)n1` [Example 16.01.03, 2-cyclopropyl-1-{4-[(2-{[6-(3-methyl-1,2,4-oxadiazol-5-yl)-1H-benzimidazol-2-yl]amino}pyridin-4-yl)methyl]piperazin-1-yl}ethanone] reads 115 nM.
To `Cc1noc(-c2ccc3nc(Nc4cc(CN5CCN(C(=O)C(C)(C)C)CC5)ccn4)[nH]c3c2)n1` [Example 16.01.06, 2,2-dimethyl-1-{4-[(2-{[6-(3-methyl-1,2,4-oxadiazol-5-yl)-1H-benzimidazol-2-yl]amino}pyridin-4-yl)methyl]piperazin-1-yl}propan-1-one] belongs 208 nM; to `CC(c1ccnc(Nc2nc3ccc(-c4cnn(CC5CC5(F)F)c4)cc3[nH]2)c1)N1CCN(C(=O)CC(F)(F)F)CC1` (single isomer, unassigned) [Example 55.02.02, 1-{4-[(1R or 1S)-1-(2-{[6-(1-{[(1R or IS)-2,2-difluorocyclopropyl]methyl}-1H-pyrazol-4-yl)-1H-benzimidazol-2-yl]amino}pyridin-4-yl)ethyl]piperazin-1-yl}-3,3,3-trifluoropropan-1-one], 1.3 nM; to `Cc1noc(-c2ccc3nc(Nc4cc(C(C)N5CCN(C(=O)C(C)(C)O)CC5)ccn4)[nH]c3c2)n1` (single isomer, unassigned) [Example 16.06.06, 2-hydroxy-2-methyl-1-{4-[(1R or 1S)-1-(2-{[6-(3-methyl-1,2,4-oxadiazol-5-yl)-1H-benzimidazol-2-yl]amino}pyridin-4-yl)ethyl]piperazin-1-yl}propan-1-one], 73 nM.
Turning to `CC(C)(C)OC(=O)N1CCN(Cc2ccnc(Nc3nc4ccc(-c5cc(NC6CC6)ncn5)cc4[nH]3)c2)CC1` [Example 82.01, tert-butyl 4-{[2-({6-[6-(cyclopropylamino)pyrimidin-4-yl]-1H-benzimidazol-2-yl}amino)pyridin-4-yl]methyl}piperazine-1-carboxylate], the IC50 was 3.6 nM.
The result for `CN(C)c1cc(-c2ccc3nc(Nc4cc(CN5CCN(C(=O)OC(C)(C)C)CC5)ccn4)[nH]c3c2)ncn1` [Example 143.01, tert-butyl 4-{[2-({6-[6-(dimethylamino)pyrimidin-4-yl]-1H-benzimidazol-2-yl}amino)pyridin-4-yl]methyl}piperazine-1-carboxylate] reads 18 nM; that for `COc1cc(-c2ccc3nc(Nc4cc(C(C)N5CCN(C(=O)CC(F)(F)F)CC5)ccn4)[nH]c3c2)ncn1` (single isomer, unassigned) [Example 34.03.01.A, 3,3,3-trifluoro-1-{4-[(1R or 1S)-1-(2-{[6-(6-methoxypyrimidin-4-yl)-1H-benzimidazol-2-yl]amino}pyridin-4-yl)ethyl]piperazin-1-yl}propan-1-one], 12.1 nM; that for `CC(C)(C)OC(=O)N1CCN(Cc2ccnc(Nc3nc4ccc(-c5nc(C6CC6)no5)cc4[nH]3)c2)CC1` [Example 17.01, tert-butyl 4-[(2-{[6-(3-cyclopropyl-1,2,4-oxadiazol-5-yl)-1H-benzimidazol-2-yl]amino}pyridin-4-yl)methyl]piperazine-1-carboxylate], 97.8 nM.
On to `CCOc1c(-c2ccncc2OC)ccc2nc(Nc3cc(CN4CCN(C(=O)CC(F)(F)F)CC4)ccn3)[nH]c12` [Example 51.01, 1-{4-[(2-{[7-ethoxy-6-(3-methoxypyridin-4-yl)-1H-benzimidazol-2-yl]amino}pyridin-4-yl)methyl]piperazin-1-yl}-3,3,3-trifluoropropan-1-one], for which the IC50 was found to be 148 nM.
As to `CC(c1ccnc(Nc2nc3ccc(-c4cnn(CC5CC5)c4)cc3[nH]2)c1)N1CCN(C(=O)OC(C)(C)C)CC1` (single isomer, unassigned) [Example 39.02.01, tert-butyl 4-{(1R or 1S)-1-[2-({6-[1-(cyclopropylmethyl)-1H-pyrazol-4-yl]-1H-benzimidazol-2-yl}amino)pyridin-4-yl]ethyl}piperazine-1-carboxylate], the IC50 stood at 8.61 nM.
With `CCOc1ncnc(-c2ccc3nc(Nc4cc(CN5CCN(C(=O)OC(C)(C)C)CC5)ccn4)[nH]c3c2)c1OC` [Example 167.01, tert-butyl 4-[(2-{[6-(6-ethoxy-5-methoxypyrimidin-4-yl)-1H-benzimidazol-2-yl]amino}pyridin-4-yl)methyl]piperazine-1-carboxylate], the IC50 was determined as 222 nM.
`COc1cnccc1-c1ccc2nc(Nc3cc(CN4CCN(C(=O)CC5CC5)CC4)ccn3)[nH]c2c1` [Example 04.05, 2-cyclopropyl-1-{4-[(2-{[6-(3-methoxypyridin-4-yl)-1H-benzimidazol-2-yl]amino}pyridin-4-yl)methyl]piperazin-1-yl}ethanone]: the IC50 is 25.3 nM.
Regarding `Cc1ncc(C)c(-c2ccc3nc(Nc4cc(CN5CCN(C(=O)C6CCC6)CC5)ccn4)[nH]c3c2)n1` [Example 33.04, cyclobutyl{4-[(2-{[6-(2,5-dimethylpyrimidin-4-yl)-1H-benzimidazol-2-yl]amino}pyridin-4-yl)methyl]piperazin-1-yl}methanone], the IC50 came to 2120 nM.
For the compound `Cc1c(-c2ccc3nc(Nc4cc(CN5CCN(C(=O)C6CC6)CC5)ccn4)[nH]c3c2)ccnc1OC(C)C` [Example 11.01, cyclopropyl(4-{[2-({6-[3-methyl-2-(propan-2-yloxy)pyridin-4-yl]-1H-benzimidazol-2-yl}amino)pyridin-4-yl]methyl}piperazin-1-yl)methanone], the IC50 was found to be 3610 nM.
Consider `COCCCS(=O)(=O)N1CCN(Cc2ccnc(Nc3nc4ccc(-c5ncncc5OC)cc4[nH]3)c2)CC1` [Example 35.01.10, N-[4-({4-[(3-methoxypropyl)sulfonyl]piperazin-1-yl}methyl)pyridin-2-yl]-6-(5-methoxypyrimidin-4-yl)-1H-benzimidazol-2-amine], for which the 50% inhibitory concentration (IC50) came out at 35 nM.
For the compound `CC(c1ccnc(Nc2nc3ccc(-c4cnn(CC5CCC5)c4)cc3[nH]2)c1)N1CCN(C(=O)C2CC2)CC1` (single isomer, unassigned) [Example 59.01.03, (4-{(1R or 1S)-1-[2-({6-[1-(cyclobutylmethyl)-1H-pyrazol-4-yl]-1H-benzimidazol-2-yl}amino)pyridin-4-yl]ethyl}piperazin-1-yl)(cyclopropyl)methanone], the IC50 stood at 2.59 nM.
As to `Cc1cc(CN2CCN(C(=O)C3CC3)CC2)cc(Nc2nc3ccc(-c4ccnc(C)n4)cc3[nH]2)n1` [Example 24.02.01, cyclopropyl{4-[(2-methyl-6-{[6-(2-methylpyrimidin-4-yl)-1H-benzimidazol-2-yl]amino}pyridin-4-yl)methyl]piperazin-1-yl}methanone], the IC50 is 45.8 nM.
